Test system: human B cells
Assay: Human B cells proliferation stimulated by anti-IgM (3H thymidine)
Type: cell-based
Description: Human B Cells Proliferation stimulate by anti-IgM
Isolate PBMCs from Leukopac or from human fresh blood. Isolate human B cells by using Miltenyi protocol and B cell isolation kit II.—human B cells were Purified by using autoMACS® column.
Activation of Human B Cells
Use 96 well Flat bottom plate, plate 50000/well purified B cells in B cell proffer-ation medium (DMEM+5% FCS, 10 mM Hepes, 50 μM 2-mercaptoethanol); 150 μL medium contain 250 ng/mL CD40L-LZ recombinant protein (Amgen) and 2 μg/mL anti-Human IgM antibody (Jackson ImmunoReseach Lab.#109-006-129), mixed with 50 μL B cell medium containing PI3K inhibitors and incubate 72 h at 37° C. incubator. After 72 h, pulse labeling B cells with 0.5-1 uCi/well ^3H thymidine for overnight ˜18 h, and harvest cell using TOM harvester.

[1] = Homo sapiens, B-cell, 72 h, purified human B cells, anti-Human IgM + CD40L-LZ

Row | Compound | IC50 [1] [nM] | IC50 (Homo sapiens, B-cell, purified human B cells, anti-Human IgM + CD40L-LZ, 72 h) [nM]
1 | C[C@H](Nc1ncnc2[nH]cnc12)c1cc2cccc(Cl)c2nc1-c1ccccn1 [N-((1S)-1-(8-chloro-2-(2-pyridinyl)-3-quinolinyl)ethyl)-9H-purin-6-amine] | 3.24 | 
2 | C[C@H](Nc1ncnc2[nH]cnc12)c1cc2cccc(Cl)c2nc1-c1ncccn1 [N-((1S)-1-(8-chloro-2-(2-pyrimidinyl)-3-quinolinyl)ethyl)-9H-purin-6-amine] | 90.4 | 
3 | C[C@H](Nc1ncnc2[nH]cnc12)c1cc2cccc(Cl)c2nc1-c1cc(F)cc(F)c1 [N-((1S)-1-(8-chloro-2-(3,5-difluorophenyl)-3-quinolinyl)ethyl)-9H-purin-6-amine] | 5.04 | 5.04
4 | Cc1cc(C)n(-c2nc3c(Cl)cccc3cc2[C@H](C)Nc2ncnc3[nH]cnc23)n1 [N-((1S)-1-(8-chloro-2-(3,5-dimethyl-1H-pyrazol-1-yl)-3-quinolinyl)ethyl)-9H-purin-6-amine] | 2.63 | 
5 | C[C@H](Nc1ncnc2[nH]cnc12)c1cc2cccc(Cl)c2nc1-c1cccc(S(C)(=O)=O)c1 [N-((1S)-1-(8-chloro-2-(3-(methylsulfonyl)phenyl)-3-quinolinyl)ethyl)-9H-purin-6-amine] | 55.8 | 
6 | C[C@H](Nc1ncnc2[nH]cnc12)c1cc2cccc(Cl)c2nc1-n1ccc(C(F)(F)F)n1 [N-((1S)-1-(8-chloro-2-(3-(trifluoromethyl)-1H-pyrazol-1-yl)-3-quinolinyl)ethyl)-9H-purin-6-amine] | 449 | 
7 | C[C@H](Nc1ncnc2[nH]cnc12)c1cc2cccc(Cl)c2nc1-c1cccc(Cl)c1 [N-((1S)-1-(8-chloro-2-(3-chlorophenyl)-3-quinolinyl)ethyl)-9H-purin-6-amine] | 5.52 | 
8 | CCC[C@H](Nc1ncnc2[nH]cnc12)c1cc2cccc(Cl)c2nc1-c1cccc(F)c1 [N-((1S)-1-(8-chloro-2-(3-fluorophenyl)-3-quinolinyl)butyl)-9H-purin-6-amine] | 6.52 | 
9 | C[C@H](Nc1ncnc2[nH]cnc12)c1cc2cccc(Cl)c2nc1-c1cccc(F)c1 [N-((1S)-1-(8-chloro-2-(3-fluorophenyl)-3-quinolinyl)ethyl)-9H-purin-6-amine] | 2.42 | 
10 | CC[C@H](Nc1ncnc2[nH]cnc12)c1cc2cccc(Cl)c2nc1-c1cccc(F)c1 [N-((1S)-1-(8-chloro-2-(3-fluorophenyl)-3-quinolinyl)propyl)-9H-purin-6-amine] | 5.3 | 
11 | Cc1cccnc1-c1nc2c(Cl)cccc2cc1[C@H](C)Nc1ncnc2[nH]cnc12 [N-((1S)-1-(8-chloro-2-(3-methyl-2-pyridinyl)-3-quinolinyl)ethyl)-9H-purin-6-amine] | 33.2 | 
12 | C[C@H](Nc1ncnc2[nH]cnc12)c1cc2cccc(Cl)c2nc1-c1cccnn1 [N-((1S)-1-(8-chloro-2-(3-pyridazinyl)-3-quinolinyl)ethyl)-9H-purin-6-amine] | 18 | 
13 | C[C@H](Nc1ncnc2[nH]cnc12)c1cc2cccc(Cl)c2nc1-c1cccnc1 [N-((1S)-1-(8-chloro-2-(3-pyridinyl)-3-quinolinyl)ethyl)-9H-purin-6-amine] | 3.44 | 
14 | C[C@H](Nc1ncnc2[nH]cnc12)c1cc2cccc(Cl)c2nc1-c1ccc(F)cc1 [N-((1S)-1-(8-chloro-2-(4-fluorophenyl)-3-quinolinyl)ethyl)-9H-purin-6-amine] | 10.5 | 
15 | CC(C)Cc1ncc(F)cc1-c1nc2c(Cl)cccc2cc1[C@H](C)Nc1ncnc2[nH]cnc12 [N-((1S)-1-(8-chloro-2-(5-fluoro-2-(2-methylpropyl)-3-pyridinyl)-3-quinolinyl)ethyl)-9H-purin-6-amine] | 15.5 | 
16 | Cc1ncc(F)cc1-c1nc2c(Cl)cccc2cc1[C@H](C)Nc1ncnc2[nH]cnc12 [N-((1S)-1-(8-chloro-2-(5-fluoro-2-methyl-3-pyridinyl)-3-quinolinyl)ethyl)-9H-purin-6-amine] | 16.9 | 
17 | C[C@H](Nc1ncnc2[nH]cnc12)c1cc2cccc(Cl)c2nc1-c1cncc(F)c1 [N-((1S)-1-(8-chloro-2-(5-fluoro-3-pyridinyl)-3-quinolinyl)ethyl)-9H-purin-6-amine] | 3.57 | 
18 | C[C@H](Nc1ncnc2[nH]cnc12)c1cc2cccc(Cl)c2nc1-c1cccc(F)n1 [N-((1S)-1-(8-chloro-2-(6-fluoro-2-pyridinyl)-3-quinolinyl)ethyl)-9H-purin-6-amine] | 3.1 | 
19 | Cc1cccc(-c2nc3c(Cl)cccc3cc2[C@H](C)Nc2ncnc3[nH]cnc23)n1 [N-((1S)-1-(8-chloro-2-(6-methyl-2-pyridinyl)-3-quinolinyl)ethyl)-9H-purin-6-amine] | 105 | 
20 | C[C@H](Nc1ncnc2[nH]cnc12)c1cc2cccc(Cl)c2nc1Oc1ccccc1 [N-((1S)-1-(8-chloro-2-phenoxy-3-quinolinyl)ethyl)-9H-purin-6-amine] | 29.3 | 
21 | C[C@H](Nc1ncnc2[nH]cnc12)c1cc2cccc(Cl)c2nc1-c1ccccc1 [N-((1S)-1-(8-chloro-2-phenyl-3-quinolinyl)ethyl)-9H-purin-6-amine] | 2.65 | 
22 | C[C@H](Nc1ncnc2nc[nH]c12)c1cc2cccc(F)c2nc1-c1cccnc1 [N-((1S)-1-(8-fluoro-2-(3-pyridinyl)-3-quinolinyl)ethyl)-7H-purin-6-amine] | 15.4 | 

Row | Compound | IC50 [1] [nM] | IC50 (Homo sapiens, B-cell, purified human B cells, anti-Human IgM + CD40L-LZ, 72 h) [nM]
23 | Clc1cccc2cc(CNc3ncnc4[nH]cnc34)c(-c3ccccc3-c3ccccc3)nc12 [N-((2-(2-biphenylyl)-8-chloro-3-quinolinyl)methyl)-9H-purin-6-amine] | 165 | 
24 | Fc1ccc2cc(CNc3ncnc4[nH]cnc34)c(-c3ccccc3Cl)nc2c1 [N-((2-(2-chlorophenyl)-7-fluoro-3-quinolinyl)methyl)-9H-purin-6-amine] | 88.7 | 
25 | Fc1cccc2nc(CNc3ncnc4[nH]cnc34)c(-c3ccccc3Cl)nc12 [N-((3-(2-Chlorophenyl)-5-fluoroquinoxalin-2-yl)methyl)-9H-purin-6-amine] | 299 | 
26 | Clc1ccccc1-c1nc2c(I)cccc2nc1CNc1ncnc2[nH]cnc12 [N-((3-(2-Chlorophenyl)-5-iodoquinoxalin-2-yl)methyl)-9H-purin-6-amine] | 88.4 | 
27 | Fc1cccc2nc(-c3ccccc3Cl)c(CNc3ncnc4[nH]cnc34)nc12 [N-((3-(2-Chlorophenyl)-8-fluoroquinoxalin-2-yl)methyl)-9H-purin-6-amine] | 177 | 
28 | Cc1cccc2nc(CNc3ncnc4ccsc34)c(-c3ccccc3Cl)nc12 [N-((3-(2-chlorophenyl)-5-methyl-2-quinoxalinyl)methyl)thieno[3,2-d]pyrimidin-4-amine] | 194 | 
29 | CS(=O)(=O)c1cccc2nc(-c3ccccc3Cl)c(CNc3ncnc4[nH]cnc34)nc12 [N-((3-(2-chlorophenyl)-8-(methylsulfonyl)-2-quinoxalinyl)methyl)-9H-purin-6-amine] | 2410 | 
30 | Fc1ccc(Cl)c(-c2nc3c(Cl)cccc3nc2CNc2ncnc3[nH]cnc23)c1 [N-((5-Chloro-3-(2-chloro-5-fluorophenyl)quinoxalin-2-yl)methyl)-9H-purin-6-amine] | 165 | 
31 | Fc1cccc(-c2nc3c(Cl)cccc3nc2CNc2ncnc3[nH]cnc23)c1 [N-((5-Chloro-3-(3-fluorophenyl)quinoxalin-2-yl)methyl)-9H-purin-6-amine] | 71.9 | 
32 | FC(F)(F)c1ccccc1-c1nc2c(Cl)cccc2nc1CNc1ncnc2[nH]cnc12 [N-((5-chloro-3-(2-(trifluoromethyl)phenyl)-2-quinoxalinyl)methyl)-9H-purin-6-amine] | 41.8 | 
33 | Clc1ccccc1-c1nc2c(Cl)cccc2nc1CNc1ncnc2[nH]cnc12 [N-((5-chloro-3-(2-chlorophenyl)-2-quinoxalinyl)methyl)-9H-purin-6-amine] | 82.5 | 
34 | Fc1cccc(-c2cc3c(Cl)cccc3nc2CNc2ncnc3[nH]cnc23)c1 [N-((5-chloro-3-(3-fluorophenyl)-2-quinolinyl)methyl)-9H-purin-6-amine] | 130 | 
35 | Fc1cccc(-c2nc3c(Br)cccc3cc2CNc2ncnc3[nH]cnc23)c1 [N-((8-Bromo-2-(3-fluorophenyl)quinolin-3-yl)methyl)-9H-purin-6-amine] | 68.8 | 
36 | Clc1cccc2cc(CNc3ncnc4[nH]cnc34)c(-c3nccs3)nc12 [N-((8-chloro-2-(1,3-thiazol-2-yl)-3-quinolinyl)methyl)-9H-purin-6-amine] | 209 | 
37 | Clc1cccc2cc(CNc3ncnc4[nH]cnc34)c(-c3cn[nH]c3)nc12 [N-((8-chloro-2-(1H-pyrazol-4-yl)-3-quinolinyl)methyl)-9H-purin-6-amine] | 158 | 
38 | Fc1ccc(F)c(-c2nc3c(Cl)cccc3cc2CNc2ncnc3[nH]cnc23)c1 [N-((8-chloro-2-(2,5-difluorophenyl)-3-quinolinyl)methyl)-9H-purin-6-amine] | 38.2 | 
39 | CC(C)c1ncccc1-c1nc2c(Cl)cccc2cc1CNc1ncnc2[nH]cnc12 [N-((8-chloro-2-(2-(1-methylethyl)-3-pyridinyl)-3-quinolinyl)methyl)-9H-purin-6-amine] | 30.6 | 
40 | CC(C)c1ccccc1-c1nc2c(Cl)cccc2cc1CNc1ncnc2[nH]cnc12 [N-((8-chloro-2-(2-(1-methylethyl)phenyl)-3-quinolinyl)methyl)-9H-purin-6-amine] | 17.6 | 
41 | Clc1cccc2cc(CNc3ncnc4[nH]cnc34)c(-c3ccccc3-c3nn[nH]n3)nc12 [N-((8-chloro-2-(2-(2H-tetrazol-5-yl)phenyl)-3-quinolinyl)methyl)-9H-purin-6-amine] | 9710 | 
42 | CS(=O)(=O)c1ccccc1-c1nc2c(Cl)cccc2cc1CNc1ncnc2[nH]cnc12 [N-((8-chloro-2-(2-(methylsulfonyl)phenyl)-3-quinolinyl)methyl)-9H-purin-6-amine] | 151 | 
43 | Fc1ccc(Cl)c(-c2nc3c(Cl)cccc3cc2CNc2ncnc3[nH]cnc23)c1 [N-((8-chloro-2-(2-chloro-5-fluorophenyl)-3-quinolinyl)methyl)-9H-purin-6-amine] | 38.4 | 
